Data set [1] can be described thus: Caco-2 cell monolayer permeability assay. The settings on record: human. The format is in vitro ADME, human. An excerpt:
(§1) In order to test the ability of the payloads and/or conjugates to enter cells, a cell monolayer assay was utilized employing Caco-2 cells (a human epithelial colorectal adenocarcinoma cell line).
(§2) Experimental Procedure: Caco-2 cells grown in tissue culture flasks are trypsinized, suspended in medium, and the suspensions were applied to wells of a Millipore 96 well Caco-2 plate. The cells are allowed to grow and differentiate for three weeks, feeding at 2-day intervals. For Apical to Basolateral (A→B) permeability, the test agent is added to the apical (A) side and amount of permeation is determined on the basolateral (B) side; for Basolateral to Apical (B→A) permeability, the test agent is added to the B side and the amount of permeation is determine on the A side.

The subject of a further data set is Caco-2 cells. Nature of the data set: Caco-2 cell monolayer permeability assay. The class given is in vitro ADME, human. The settings on record: Caco-2.
Description: as §1, §2
(Caco-2 cells form a polarised layer with tight junctions and transporters.)

The test system of the next data set is human total EbB2/Her2. Nature of the data set: HER2 degradation assay (ELISA) in BT474 cells. The class given is cell-based. The settings on record: BT-474, 16 hrs, read-out: Her2 Degradation IC50 Abs IC50. As to the method:
BT474 (breast cancer) cells were plated at 12,000 cells per well and incubated for 20-24 hrs at 37° C. at 5% CO2. Post cell incubation, compounds were reconstituted in DMSO to a stock concentration of 5 mM. A compound plate was then prepared containing a 10 point dilution in DMSO. 2 uL of these dilutions were then added to the cells for a final working concentration of 5 uM to 0.0003 uM. Compounds and cells were incubated for 16 hrs. Media was then removed, cells washed, lysed, and analyzed for human total EbB2/Her2 levels by ELISA.
(In general: ELISA stands for enzyme-linked immunosorbent assay.)

The test system of another data set is NCI-H460 cells. Description: NCI-H460 tumor cell cytotoxicity assay (CellTiter-Glo). The format is cell-based. The settings on record: Homo sapiens, NCI-H460, 48 h. On the procedure: NCI-H460 cells (non-small cell lung cancer) were plated at 500 cells per well and incubated for 20-24 hrs at 37° C. at 5% CO2. Post cell incubation, compounds were reconstituted in DMSO to a stock concentration of 200 uM. A compound plate was then prepared containing a 10 point dilution in RPMI+10% FBS+0.25% DMSO. 5 uL of the dilution was then added for a final working concentration range of 10 uM to 0.0005 uM. Compounds and cells were then incubated for 48 hrs. Cells were then analyzed by CellTiter-Glo for ATP levels and percent inhibition calculated.
In general terms: In ATP-based viability assays light output follows the ATP content of the culture.

The test system of data set [2] is H1975 cells (non-small cell lung cancer) xenograft. Nature of the data set: H1975 xenograft study. The class given is in vivo, mice. The settings on record: 12.5 mg/kg twice a week intravenously, Day 19, compared to vehicle control. As to the method:
Female athymic nude mice were implanted with 5×10^6 H1975 cells (non-small cell lung cancer) per mouse in the right hind flank. Once tumors reached a volume of 50 mm^3 to 150 mm^3 they were randomized into two groups of ten to obtain a group average starting tumor volume of 114.4 mm^3. Mice were then treated with either a vehicle control or 12.5 mg/kg of Conjugate 38. All dosing was carried out twice a week intravenously for three weeks, with five total doses being administered. Tumor volumes of the mice were measured. Final study measurements were taken on Day 19, at which point the study was terminated due to vehicle control tumor volumes approaching IACUC limits.

The next data set in a line: H460 mouse tumor PK. The format is in vivo, mice. The settings on record: for concentration at 96 h / concentration at 144 h: mouse, in vivo, 25 mg/kg, 25 mg/kg IV, read-out: Conjugate 38 Conc. in H460 Mouse Tumor. On the procedure: Conjugate and unconjugated payload accumulation at 96 and 144 h in H460 tumor-bearing mice. Conjugate 38 was dosed at 25 mg/kg intravenously.

The test system of data set [3] is H460 lung cancer xenograft. Description: H460 lung cancer xenograft model. The settings on record: FIG. 2, in words. The class given is in vivo, mice.
Data set [4] concerns LS174t colon tumor xenograft. Description: LS174t colon tumor xenograft model, efficacy. The format is in vivo, mice. The settings on record: FIG. 3A, in words.
The format of data set [5] is in vivo, mice. The settings on record: LS174t xenograft, FIG. 4. On the procedure: Accumulation and retention of Conjugate 38 was tested in this tumor xenograft model.
The next data set relates to pAKT (S473). Nature of the data set: LS174t tumor xenograft, pharmacodynamic response. The format is in vivo, mice. The settings on record: through the course of 48 h, FIG. 5, in words.
Data set [6] concerns SKOV3 (ovarian cancer) tumor xenograft. Description: SKOV3 ovarian cancer xenograft. The class given is in vivo, mice. The settings on record: Conjugate 38 IV 25 mg/kg vs Copanlisib 6 mg/kg, FIG. 3B. As to the method:
(§3) PIK3A mutations occur in about 15% to 30% of breast, endometrial and colon cancers. In additional to LS174t model, other xenograft models harboring common PIK3CA mutations were chosen for testing. In one study, mice bearing SKOV3 (ovarian cancer) tumor xenograft were treated with IV dose of Conjugate 38 at 25 mg/kg and Copanlisib at 6 mg/kg. Doses were selected based on the maximum tolerated dose. In another study, mice bearing BT474 (breast cancer) tumor xenograft were treated with IV dose of Conjugate 38 at 25 mg/kg and Copanlisib at 6 mg/kg.

For data set [7], the system named is BT474 (breast cancer) tumor xenograft. Nature of the data set: BT474 breast cancer xenograft. The class given is in vivo, mice. The settings on record: Conjugate 38 IV 25 mg/kg vs Copanlisib 6 mg/kg, FIG. 3C. As to the method:
as §3

A further data set concerns PI3K. Description: Cell free PI3K enzyme assay. The settings on record: FIG. 6, in words. The format is biochemical. An excerpt: Therefore, conjugating a PI3K enzyme inhibitor payload to a HSP90 targeting ligand masked the PI3K enzyme inhibition.
Data set [8] in a line: Glucose levels post dosing in mice. The class given is in vivo. The settings on record: FIG. 7, in words. An excerpt: In an in vivo study in mice, glucose levels were monitored post PI3K inhibitor (Copanlisib) and Conjugate 38 dosing. […] Therefore, conjugating a PI3K enzyme inhibitor payload to a HSP90 targeting ligand reduced the normal tissue activity of glucose increase in mice.

The test system of a further data set is ERK1/2. Description: ERK1/2 inhibiting activity (FIG. 8B). The settings on record: in words. The class given is biochemical. An excerpt:
(§4) The activity of the respective payload is blocked until the linker moiety gets cleaved in the tumor and releases active unblocked payload. Through the HSP90 platform, toxicity is mitigated by masking the payload's active site until it can be delivered to the tumor.
(§5) FIG. 8A compares the activity of Conjugate 45 and its payload (talazoparib). FIG. 8B compares the activity of Conjugate 46 and its payload (ulixertinib). FIG. 8C compares the activity of Conjugate 47 and its payload TAK-733. The data further support that attaching a payload to a HSP90 binding ligand blocks the target activity of the payload. The HSP90 bindings of the HSP90 ligands are not affected.

The next data set concerns MEK. Nature of the data set: MEK activity (FIG. 8C). The class given is biochemical. The settings on record: in words.
Description: as §4, §5

The structures appear in SMILES notation. Like-named read-outs stand apart in the source and are kept apart here. Bounds are passed on as bounds.

Take `COc1c(OCCCN2CCNCC2)ccc2c1N=C(NC(=O)c1cnc(N)nc1)N1CCN=C21` [Compound 27A]: the Papp A→B (usually the apparent permeability from the apical to the basolateral side of a cell layer) in [1] (Caco-2, A to B direction) was determined as 0.032 nm/s. The Papp B→A – broadly, the apparent permeability from the basolateral to the apical side of a cell layer – in data set [1] (Caco-2, B to A direction) is 0.162 nm/s. The permeability in words result in the data set on Caco-2 cells is reported as “very low permeability”.
In the case of `CCNC(=O)c1nnc(-c2cc(C(C)C)c(O)cc2O)n1-c1ccc(CN2CCN(C(=O)Cc3ccc(OC(=O)N4CCN(CCCOc5ccc6c(c5OC)N=C(NC(=O)c5cnc(N)nc5)N5CCN=C65)CC4)cc3)CC2)cc1` [Compound 38], the IC50 in the data set on human total EbB2/Her2 was determined as 39 nM; in the data set with NCI-H460 cells (n = 1, read-out: H460 in vitro cytotoxicity), 8.2 nM; in the data set on NCI-H460 cells (n = 2, read-out: H460 in vitro cytotoxicity) it was 7.4 nM. For the same compound, the tumor growth inhibition in data set [2] was 70.8%. Further, the “accumulation and retention in xenograft tumor tissue” value in “H460 mouse tumor PK” (H460 tumor-bearing mice, in words) was “accumulated and was retained in xenograph tumor tissue”. The concentration at 96 h in the data set “H460 mouse tumor PK” (Animal ID 1) was 6.2 µM; in the data set “H460 mouse tumor PK” (Animal ID 2), 7.6 µM; in the data set “H460 mouse tumor PK” (Animal ID 3), 6.25 µM; in the data set “H460 mouse tumor PK” (Mean) it was 6.68 µM. The concentration at 144 h in the data set “H460 mouse tumor PK” (Animal ID 1) amounted to 0.84 µM; in “H460 mouse tumor PK” (Animal ID 2), 3.61 µM; in “H460 mouse tumor PK” (Animal ID 3), 1.57 µM; in “H460 mouse tumor PK” (Mean) it was 2.01 µM. Further, in [3], the “efficacy (tumor volumes) in H460 xenograft” value is recorded as “superior to Copanlisib alone or ganetespib alone”. In data set [4], the “efficacy (tumor growth inhibition) in LS174t xenograft” value was “significant tumor growth inhibition”. For the same compound, the “efficacy compared with combination therapy of copanlisib and ganetespib” value in [4] (LS174t xenograft) is “worked much better than a combination therapy comprising copanlisib and ganetespib”. Also, the “time remaining in the tumor xenograft and releasing active PI3K inhibitor payload” value in data set [5] is over 96 h. For the same compound, the “inhibition of PI3K shown by pAKT (S473)” value in the data set with pAKT (S473) is given as “significant reduction of pAKT (S473)”. The “tumor growth inhibition compared to Copanlisib” value in data set [6] and in [7] was “statistically significant increase in tumor growth inhibition” each time. In addition, the “PI3K enzyme inhibition compared with payload” value in the data set with PI3K is reported as “much less active than its PI3K enzyme inhibitor payload”. Moreover, the “glucose concentration after dosing” value in [8] is recorded as “lower glucose concentrations than mice treated with the PI3K inhibitor payload”.
Regarding `CCNC(=O)c1nnc(-c2cc(C(C)C)c(O)cc2O)n1-c1ccc(CN2CCC(C(=O)N3CCC(C(=O)OC[C@@H](NC(=O)c4cc(-c5cc(NC(C)C)ncc5Cl)c[nH]4)c4cccc(Cl)c4)CC3)CC2)c(F)c1` [Conjugate 46], the “ERK1/2 inhibiting activity compared with payload (ulixertinib)” value in the data set on ERK1/2 is “lower than its payload”.
Consider `CCNC(=O)c1nnc(-c2cc(C(C)C)c(O)cc2O)n1-c1ccc(N(C)C2CCN(C(=O)CCC(=O)OC[C@H](O)Cn3cnc4c(c(Nc5ccc(I)cc5F)c(F)c(=O)n4C)c3=O)CC2)cc1` [Conjugate 47], for which the “MEK activity compared with payload TAK-733” value in the data set with MEK was “lower than its payload”.

For the origin of these results see patent US20210000966A1, “HSP90-TARGETING CONJUGATES AND FORMULATIONS THEREOF” (TARVEDA THERAPEUTICS, INC., priority 2017, published 2021).
